Measurements published in patent US10233182B2, “Substituted spirocyclic inhibitors of autotaxin” (X-Rx, Inc., priority 2014, dated 2019).
Where a name gives a salt, the structure may show the parent alone.

Target: Autotaxin (Homo sapiens (Human), UniProt Q13822)
Experiment: Autotaxin LPC Cascade Assay
Format: biochemical
Details: Autotaxin 5 nM, LPC 100 μM, choline oxidase/HRP/Ampliflu Red fluorescence read-out, 2% DMSO, RT; read-out: IC50 ATX Activity
Summary of the method: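 Choline liberated from LPC by autotaxin during 1 h, after a 10-min RT compound preincubation, was converted through choline oxidase/HRP to a fluorescent Ampliflu Red product.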

CC(C)[C@@H](NC(=O)c1cc(F)ccc1F)C(=O)N1CCC2(CC1)C(=O)N(C)C(=O)N2c1ccc2[nH]ncc2c1 [Example 66, (R)—N-(1-(1-(1H-Indazol-5-yl)-3-methyl-2,4-dioxo-1,3,8-triazaspiro[4.5]decan-8-yl)-3-methyl-1-oxobutan-2-yl)-2,5-difluorobenzamide]
IC50: 500 to 1000 nM

CC(C)[C@@H](NC(=O)C(C)(C)C)C(=O)N1CCC2(CC1)C(=O)N(C)C(=O)N2c1ccc2[nH]ncc2c1 [Example 232, (R)—N-(1-(1-(1H-Indazol-5-yl)-3-methyl-2,4-dioxo-1,3,8-triazaspiro[4.5]decan-8-yl)-3-methyl-1-oxobutan-2-yl)pivalamide]
IC50: ≥ 1000 nM

CC(C)[C@@H](NC(=O)c1cc(C(F)(F)F)ccc1F)C(=O)N1CCC2(CC1)C(=O)N(C)CN2c1ccc2[nH]ncc2c1 [Example 214, (R)—N-(1-(1-(1H-Indazol-5-yl)-3-methyl-4-oxo-1,3,8-triazaspiro[4.5]decan-8-yl)-3-methyl-1-oxobutan-2-yl)-2-fluoro-5-(trifluoromethyl)benzamide]
IC50: < 500 nM

CC(C)[C@@H](NC(=O)c1cccc(F)c1)C(=O)N1CCC2(CC1)C(=O)N(C)C(=O)N2c1ccccc1 [Example 2, (R)-3-Fluoro-N-(3-methyl-1-(3-methyl-2,4-dioxo-1-phenyl-1,3,8-triazaspiro[4.5]decan-8-yl)-1-oxobutan-2-yl)benzamide]
IC50: ≥ 1000 nM

CCc1cccc(C(=O)N[C@@H](C(=O)N2CCC3(CC2)C(=O)N(C)CN3c2ccccc2)C(C)C)c1 [Example 138, (R)-3-Ethyl-N-(3-methyl-1-(3-methyl-4-oxo-1-phenyl-1,3,8-triazaspiro[4.5]decan-8-yl)-1-oxobutan-2-yl)benzamide]
IC50: < 500 nM

CC[C@@H](C)[C@@H](NC(=O)c1cc(C)cc(F)c1)C(=O)N1CCC2(CC1)C(=O)N(C)C(=O)N2c1ccc(OC)cc1 [Example 41, 3-Fluoro-N-((2R,3R)-1-(1-(4-methoxyphenyl)-3-methyl-2,4-dioxo-1,3,8-triazaspiro[4.5]decan-8-yl)-3-methyl-1-oxopentan-2-yl)-5-methylbenzamide]
IC50: < 500 nM

CC(C)[C@@H](NC(=O)c1cc(C(F)(F)F)ccc1F)C(=O)N1CCC2(CC1)C(=O)N(C)CN2c1ccc(=O)n(C)c1 [Example 204, (R)-2-Fluoro-N-(3-methyl-1-(3-methyl-1-(1-methyl-6-oxo-1,6-dihydropyridin-3-yl)-4-oxo-1,3,8-triazaspiro[4.5]decan-8-yl)-1-oxobutan-2-yl)-5-(trifluoromethyl)benzamide]
IC50: < 500 nM

CC(C)[C@@H](NC(=O)c1cc(C(F)(F)F)ccc1F)C(=O)N1CCC2(CC1)C(=O)N(C)C(=O)N2c1ccc(NC(=O)C2CC2)cc1 [Example 128, (R)—N-(1-(1-(4-(Cyclopropanecarboxamido)phenyl)-3-methyl-2,4-dioxo-1,3,8-triazaspiro[4.5]decan-8-yl)-3-methyl-1-oxobutan-2-yl)-2-fluoro-5-(trifluoromethyl)benzamide]
IC50: 500 to 1000 nM

CC(C)[C@@H](NC(=O)c1cccc(C(F)(F)F)c1)C(=O)N1CCC2(CC1)C(=O)N(C)C(=O)N2c1ccc2[nH]ncc2c1 [Example 59, (R)—N-(1-(1-(1H-Indazol-5-yl)-3-methyl-2,4-dioxo-1,3,8-triazaspiro[4.5]decan-8-yl)-3-methyl-1-oxobutan-2-yl)-3-(trifluoromethyl)benzamide]
IC50: < 500 nM

CCc1ccc(F)c(C(=O)N[C@@H](C(=O)N2CCC3(CC2)C(=O)N(C)CN3c2ccc(NS(C)(=O)=O)cc2)C(C)C)c1 [Example 173, (R)-5-Ethyl-2-fluoro-N-(3-methyl-1-(3-methyl-1-(4-(methylsulfonamido)phenyl)-4-oxo-1,3,8-triazaspiro[4.5]decan-8-yl)-1-oxobutan-2-yl)benzamide]
IC50: < 500 nM

CC(C)[C@@H](NC(=O)c1cc(C(F)(F)F)ccc1F)C(=O)N1CCC2(CC1)C(=O)N(C)C(=O)N2c1ccn(C)n1 [Example 16, (R)-2-Fluoro-N-(3-methyl-1-(3-methyl-1-(1-methyl-1H-pyrazol-3-yl)-2,4-dioxo-1,3,8-triazaspiro[4.5]decan-8-yl)-1-oxobutan-2-yl)-5-(trifluoromethyl)benzamide]
IC50: ≥ 1000 nM

CCc1ccc(F)c(C(=O)N[C@@H](C(=O)N2CCC3(CC2)C(=O)N(C)CN3c2ccc(OCC#N)cc2)C(C)C)c1 [Example 170, (R)—N-(1-(1-(4-(Cyanomethoxy)phenyl)-3-methyl-4-oxo-1,3,8-triazaspiro[4.5]decan-8-yl)-3-methyl-1-oxobutan-2-yl)-5-ethyl-2-fluorobenzamide]
IC50: < 500 nM

CC(C)[C@@H](NC(=O)c1cc(C(F)(F)F)ccc1F)C(=O)N1CCC2(CC1)C(=O)N(C)C(=O)N2c1ccc(OCC2CNC2)cc1 [Example 81, (R)—N-(1-(1-(4-(Azetidin-3-ylmethoxy)phenyl)-3-methyl-2,4-dioxo-1,3,8-triazaspiro[4.5]decan-8-yl)-3-methyl-1-oxobutan-2-yl)-2-fluoro-5-(trifluoromethyl)benzamide trifluoroacetic Acid Salt]
IC50: ≥ 1000 nM

CC(C)[C@@H](NC(=O)c1cc(C(F)(F)F)ccc1F)C(=O)N1CCC2(CC1)C(=O)N(C)C(=O)N2c1ccc(NC2CNC2)cc1 [Example 86, (R)—N-(1-(1-(4-(Azetidin-3-ylamino)phenyl)-3-methyl-2,4-dioxo-1,3,8-triazaspiro[4.5]decan-8-yl)-3-methyl-1-oxobutan-2-yl)-2-fluoro-5-(trifluoromethyl)benzamide trifluoroacetic Acid Salt]
IC50: ≥ 1000 nM

Cc1nc2ccc(CN3C(=O)N(C)C(=O)C34CCN(C(=O)[C@H](NC(=O)c3cc(C(F)(F)F)ccc3F)C(C)C)CC4)cc2[nH]1 [Example 106, (R)-2-Fluoro-N-(3-methyl-1-(3-methyl-1-((2-methyl-1H-benzo[d]imidazol-6-yl)methyl)-2,4-dioxo-1,3,8-triazaspiro[4.5]decan-8-yl)-1-oxobutan-2-yl)-5-(trifluoromethyl)benzamide]
IC50: ≥ 1000 nM

CC(C)[C@@H](NC(=O)c1cc(OC(F)(F)F)ccc1F)C(=O)N1CCC2(CC1)C(=O)N(C)CN2c1ccc(C(=O)O)cc1 [Example 162, (R)-4-(8-(2-(2-Fluoro-5-(trifluoromethoxy)benzamido)-3-methylbutanoyl)-3-methyl-4-oxo-1,3,8-triazaspiro[4.5]decan-1-yl)benzoic Acid]
IC50: < 500 nM

CC(C)[C@@H](NC(=O)c1cc(C(F)(F)F)ccc1F)C(=O)N1CCC2(CC1)C(=O)N(C)C(=O)N2c1ccc2[nH]ncc2c1 [Example 52, (R)—N-(1-(1-(1H-indazol-5-yl)-3-methyl-2,4-dioxo-1,3,8-triazaspiro[4.5]decan-8-yl)-3-methyl-1-oxobutan-2-yl)-2-fluoro-5-(trifluoromethyl)benzamide]
IC50: < 500 nM

CC(C)[C@@H](NC(=O)c1cc(C(F)(F)F)ccc1F)C(=O)N1CCC2(CC1)C(=O)N(C)C(=O)N2Cc1ccc2[nH]ncc2c1 [Example 98, (R)—N-(1-(1-((1H-Indazol-5-yl)methyl)-3-methyl-2,4-dioxo-1,3,8-triazaspiro[4.5]decan-8-yl)-3-methyl-1-oxobutan-2-yl)-2-fluoro-5-(trifluoromethyl)benzamide]
IC50: < 500 nM

CC(C)[C@@H](NC(=O)c1cc(C(F)(F)F)ccc1F)C(=O)N1CCC2(CC1)C(=O)N(C)C(=O)N2Cc1cccc(C#N)c1 [Example 101, (R)—N-(1-(1-(3-Cyanobenzyl)-3-methyl-2,4-dioxo-1,3,8-triazaspiro[4.5]decan-8-yl)-3-methyl-1-oxobutan-2-yl)-2-fluoro-5-(trifluoromethyl)benzamide]
IC50: < 500 nM

CC(C)[C@@H](NC(=O)c1ccncc1)C(=O)N1CCC2(CC1)C(=O)N(C)C(=O)N2c1ccc2[nH]ncc2c1 [Example 231, (R)—N-(1-(1-(1H-Indazol-5-yl)-3-methyl-2,4-dioxo-1,3,8-triazaspiro[4.5]decan-8-yl)-3-methyl-1-oxobutan-2-yl)isonicotinamide]
IC50: ≥ 1000 nM

CC(C)[C@@H](NC(=O)c1cc(C(F)(F)F)ccc1F)C(=O)N1CCC2(CC1)C(=O)N(C)C(=O)N2c1cc[n+]([O-])cc1 [Example 240, (R)-4-(8-(2-(2-Fluoro-5-(trifluoromethyl)benzamido)-3-methylbutanoy)-3-methyl-2,4-dioxo-1,3,8-triazaspiro[4.5]decan-1-yl)pyridine 1-oxide]
IC50: ≥ 1000 nM

CC(C)[C@@H](NC(=O)C12CC3CC(CC(C3)C1)C2)C(=O)N1CCC2(CC1)C(=O)N(C)C(=O)N2c1ccc2[nH]ncc2c1 [Example 67, (R)—N-(1-(1-(1H-Indazol-5-yl)-3-methyl-2,4-dioxo-1,3,8-triazaspiro[4.5]decan-8-yl)-3-methyl-1-oxobutan-2-yl)-1-admantanecarboxly amide]
IC50: ≥ 1000 nM

CC(C)[C@@H](NC(=O)c1nccs1)C(=O)N1CCC2(CC1)C(=O)N(C)C(=O)N2c1ccc2[nH]ncc2c1 [Example 234, (R)—N-(1-(1-(1H-Indazol-5-yl)-3-methyl-2,4-dioxo-1,3,8-triazaspiro[4.5]decan-8-yl)-3-methyl-1-oxobutan-2-yl)thiazole-2-carboxamide]
IC50: ≥ 1000 nM

Cc1cccc(C(=O)N[C@@H](C(=O)N2CCC3(CC2)C(=O)N(C)CN3c2ccc(C#N)cc2)C(C)C)c1F [Example 179, (R)—N-(1-(1-(4-Cyanophenyl)-3-methyl-4-oxo-1,3,8-triazaspiro[4.5]decan-8-yl)-3-methyl-1-oxobutan-2-yl)-2-fluoro-3-methylbenzamide]
IC50: < 500 nM

CC(C)[C@@H](NC(=O)c1cc(C(F)(F)F)ccc1F)C(=O)N1CCC2(CC1)C(=O)N(C)C(=O)N2c1ccc(S(C)(=O)=O)cc1 [Example 9, (R)-2-Fluoro-N-(3-methyl-1-(3-methyl-1-(4-(methylsulfonyl)phenyl)-2,4-dioxo-1,3,8-triazaspiro[4.5]decan-8-yl)-1-oxobutan-2-yl)-5-(trifluoromethyl)benzamide]
IC50: 500 to 1000 nM

CCc1ccc(F)c(C(=O)N[C@@H](C(=O)N2CCC3(CC2)C(=O)N(C)C(=O)N3c2ccccc2)[C@H](C)OC)c1 [Example 37, 5-Ethyl-2-fluoro-N-((2R,3S)-3-methoxy-1-(3-methyl-2,4-dioxo-1-phenyl-1,3,8-triazaspiro[4.5]decan-8-yl)-1-oxobutan-2-yl)benzamide]
IC50: < 500 nM
